Patent publication US9682985B2, “(Indazol-4-yl) hexahydropyrrolopyrrolones and methods of use” (AbbVie Inc., priority 2015, dated 2017)

Experiments:
recombinant human Nav1.7 = target: T1, recombinant human Nav1.7 (Homo sapiens, UniProt Q15858); experiment: FRET-based membrane potential assay, Nav1.7; type: cell-based; conditions: HEK293 cells expressing recombinant human Nav1.7; veratridine + scorpion venom depolarization
T1 construct: expressed in transfected cells; host or cells: HEK293

hERG channel (Kv11.1) = target: T2, hERG channel (Kv11.1) (Homo sapiens, UniProt Q12809); experiment: hERG QPatch screening protocol (hERG current block); type: cell-based; conditions: HEK-293 cells stably transfected with hERG; tail current; room temperature
T2 construct: W. January (Wisconsin Alumni Research Foundation); host or cells: HEK-293
T2 sequence (Q12809 whole entry): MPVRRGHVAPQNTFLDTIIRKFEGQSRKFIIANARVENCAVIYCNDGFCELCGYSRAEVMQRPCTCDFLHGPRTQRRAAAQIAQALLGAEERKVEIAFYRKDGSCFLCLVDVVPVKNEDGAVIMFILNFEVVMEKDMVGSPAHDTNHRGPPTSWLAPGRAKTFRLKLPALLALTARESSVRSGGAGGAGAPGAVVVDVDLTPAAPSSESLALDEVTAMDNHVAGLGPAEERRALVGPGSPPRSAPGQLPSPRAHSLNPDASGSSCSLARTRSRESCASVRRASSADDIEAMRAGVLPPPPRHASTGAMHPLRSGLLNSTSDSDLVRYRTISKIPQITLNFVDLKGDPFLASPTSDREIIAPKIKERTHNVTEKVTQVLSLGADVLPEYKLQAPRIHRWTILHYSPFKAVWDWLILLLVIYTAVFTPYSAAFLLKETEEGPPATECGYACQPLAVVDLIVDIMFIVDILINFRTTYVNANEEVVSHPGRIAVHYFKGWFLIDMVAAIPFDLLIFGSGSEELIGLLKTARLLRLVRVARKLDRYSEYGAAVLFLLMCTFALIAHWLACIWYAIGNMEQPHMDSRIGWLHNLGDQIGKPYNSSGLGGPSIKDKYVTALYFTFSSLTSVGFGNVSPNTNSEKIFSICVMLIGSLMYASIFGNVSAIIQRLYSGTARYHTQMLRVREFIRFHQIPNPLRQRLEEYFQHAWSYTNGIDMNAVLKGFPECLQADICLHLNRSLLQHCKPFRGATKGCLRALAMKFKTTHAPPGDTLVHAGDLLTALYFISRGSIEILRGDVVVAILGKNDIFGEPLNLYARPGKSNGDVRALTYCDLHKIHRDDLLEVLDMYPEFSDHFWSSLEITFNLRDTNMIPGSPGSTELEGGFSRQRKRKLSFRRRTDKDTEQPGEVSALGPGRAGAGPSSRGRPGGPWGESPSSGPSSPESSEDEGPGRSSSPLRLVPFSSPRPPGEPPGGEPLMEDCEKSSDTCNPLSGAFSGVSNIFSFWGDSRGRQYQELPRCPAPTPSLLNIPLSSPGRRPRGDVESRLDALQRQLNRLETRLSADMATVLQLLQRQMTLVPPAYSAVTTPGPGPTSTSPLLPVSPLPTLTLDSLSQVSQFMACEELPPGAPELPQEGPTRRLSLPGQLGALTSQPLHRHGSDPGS
Experimental: hERG QPatch Screening Protocol
Solutions and Compound Plates:
The bath solution contained (in mM): 140 NaCl, 5 KCl, 1 MgCl2, 2 CaCl2, 5 glucose, 20 HEPES, pH=7.4. The internal solution contained (in mM): 125 K-aspartate, 20 KCl, 10 EGTA, 5 MgATP, 1 MgCl2, 5 HEPES, pH=7.3.
Compound plates were prepared with an acoustic liquid handler (Echo® 550, Labcyte), using 384-well source plates and 96-well destination plates. Compounds were delivered to the destination plates as 300 nL spots in half-log increments (1, 3, 10 and 30 mM), dissolved in dimethyl sulfoxide. Plates were solvated with bath solution (300 μL) to final concentrations (1, 3, 10 and 30 μM; 0.1% dimethyl sulfoxide) and added to the QPatch workstation.
Cells and Cell Preparation:
Human embryonic kidney (HEK-293) cells, stably transfected with the hERG channel, were obtained from Dr. C. W. January (Wisconsin Alumni Research Foundation). Cells were initially maintained at 37° C. (5% CO2 atmosphere) in MEM supplemented media. Cells were cryo-preserved in 10% dimethyl sulfoxide, 90% fetal bovine serum at 10 M cells/mL. For electrophysiological studies, cells were thawed, resuspended in media at 1.0-1.5 M cells/mL and placed on the QPatch workstation.
QPatch Electrophysiology Workstation and Experimental Protocol:
Currents were recorded using QPatch HT (Sophion), an automated planar patch-clamp system. The QPatch uses forty-eight amplifiers and a 48-chamber QPlate positioned directly on top of the headstage. To obtain high resistant seals, cells are added to each chamber and allowed to settle for 10 seconds. Negative pressure is then applied to promote cell delivery to the patch chip openings on the chamber bottom. After formation of GΩ seals, negative pressure ramps are applied to obtain intracellular access. Access resistance was initially optimized by additional pressure ramps to assure the intracellular access was adequate for voltage clamp experiments (targeted access resistance <10 MΩ). Whole-cell compensation and series resistance compensation were used at 60% (both predicted and corrected). Experiments using QPatch were conducted at room temperature.
A single application of each concentration was applied to cells. During a five-minute wash-in period, a four-second depolarizing pulse to +20 mV, followed by a five-second repolarizing pulse to −50 mV was applied once every 15 seconds from a holding potential of −80 mV. Cells were exposed to four ascending concentrations of drug in half-log intervals.
Evaluation of hERG Current Block:
hERG tail current was measured as the difference in amplitude between a […] and the end of a five-second test pulse to −50 mV, preceded by a four-second pulse to +20 mV. The hERG IC50 values for compounds were determined from tail current analysis. The IC50 was calculated with a logistic fitting routine using the following equation: y=[(A1−A2)/(1+(x/IC50))^p]A2, where A1=initial×value, A2=final×value and p=power.

T1 sequence (Q15858 whole entry): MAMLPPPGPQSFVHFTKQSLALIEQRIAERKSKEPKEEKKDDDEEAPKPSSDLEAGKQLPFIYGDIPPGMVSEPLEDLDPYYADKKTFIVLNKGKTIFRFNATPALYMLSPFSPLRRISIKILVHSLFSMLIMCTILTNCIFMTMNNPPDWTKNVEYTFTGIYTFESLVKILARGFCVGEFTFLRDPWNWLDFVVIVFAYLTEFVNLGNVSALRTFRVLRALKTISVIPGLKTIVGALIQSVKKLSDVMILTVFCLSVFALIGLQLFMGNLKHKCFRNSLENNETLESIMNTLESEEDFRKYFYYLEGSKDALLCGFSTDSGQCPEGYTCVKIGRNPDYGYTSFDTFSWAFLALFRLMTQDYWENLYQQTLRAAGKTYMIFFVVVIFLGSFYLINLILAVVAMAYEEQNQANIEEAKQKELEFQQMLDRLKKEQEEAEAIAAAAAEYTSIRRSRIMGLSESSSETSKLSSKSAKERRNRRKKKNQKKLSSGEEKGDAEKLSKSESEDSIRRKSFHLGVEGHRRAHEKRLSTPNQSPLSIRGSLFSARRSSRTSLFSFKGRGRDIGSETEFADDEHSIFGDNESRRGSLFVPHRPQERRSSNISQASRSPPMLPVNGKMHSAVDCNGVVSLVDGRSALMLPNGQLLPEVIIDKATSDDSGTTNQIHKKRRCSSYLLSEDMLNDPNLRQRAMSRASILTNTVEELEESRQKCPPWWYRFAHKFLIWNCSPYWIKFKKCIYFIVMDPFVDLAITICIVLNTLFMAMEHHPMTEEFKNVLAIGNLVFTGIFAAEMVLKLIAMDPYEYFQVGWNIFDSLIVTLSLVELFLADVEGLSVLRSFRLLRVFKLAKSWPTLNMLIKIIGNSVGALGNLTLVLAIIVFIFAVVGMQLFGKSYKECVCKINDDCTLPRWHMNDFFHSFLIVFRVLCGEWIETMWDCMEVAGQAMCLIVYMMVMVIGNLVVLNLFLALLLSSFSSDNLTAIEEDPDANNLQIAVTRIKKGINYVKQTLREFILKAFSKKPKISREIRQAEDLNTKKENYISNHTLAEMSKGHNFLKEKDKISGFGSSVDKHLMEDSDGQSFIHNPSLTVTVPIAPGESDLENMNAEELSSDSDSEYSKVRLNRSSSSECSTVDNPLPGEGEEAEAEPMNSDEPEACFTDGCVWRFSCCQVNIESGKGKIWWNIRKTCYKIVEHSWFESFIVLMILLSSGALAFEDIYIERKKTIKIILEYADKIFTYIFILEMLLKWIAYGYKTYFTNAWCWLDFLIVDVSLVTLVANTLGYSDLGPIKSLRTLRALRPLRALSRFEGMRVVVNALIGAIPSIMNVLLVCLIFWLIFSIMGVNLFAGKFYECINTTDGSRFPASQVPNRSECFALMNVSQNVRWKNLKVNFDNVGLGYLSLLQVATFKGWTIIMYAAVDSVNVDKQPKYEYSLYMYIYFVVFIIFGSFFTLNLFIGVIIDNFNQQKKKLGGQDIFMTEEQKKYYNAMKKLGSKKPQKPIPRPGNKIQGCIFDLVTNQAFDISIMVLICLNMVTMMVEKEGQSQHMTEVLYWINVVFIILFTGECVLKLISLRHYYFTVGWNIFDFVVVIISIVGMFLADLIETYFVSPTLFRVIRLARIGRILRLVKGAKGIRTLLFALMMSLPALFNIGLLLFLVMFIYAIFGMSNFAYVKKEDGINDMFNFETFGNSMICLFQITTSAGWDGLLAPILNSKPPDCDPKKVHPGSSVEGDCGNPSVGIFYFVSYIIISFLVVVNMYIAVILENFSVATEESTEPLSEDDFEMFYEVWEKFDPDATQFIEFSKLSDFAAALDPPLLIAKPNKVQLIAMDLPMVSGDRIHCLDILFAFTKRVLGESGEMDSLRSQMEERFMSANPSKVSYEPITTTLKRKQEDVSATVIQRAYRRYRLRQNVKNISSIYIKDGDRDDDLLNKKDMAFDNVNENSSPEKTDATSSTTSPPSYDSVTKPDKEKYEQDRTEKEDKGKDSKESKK

Compound | IC50 (recombinant human Nav1.7) | IC50 (hERG channel (Kv11.1))
CC(C)(O)C(=O)N1CC[C@@H]2CN(c3cccc4c3cnn4-c3ccccc3F)C(=O)[C@@H]21 (relative stereo) [Example 4, rel-(3aR,6aR)-5-[1-(2-fluorophenyl)-1H-indazol-4-yl]-1-(2-hydroxy-2-methylpropanoyl)hexahydropyrrolo[3,4-b]pyrrol-6(1H)-one] | 1.95 µM | > 30 µM
O=C1[C@H]2[C@H](CCN2C(=O)C2(O)CC2)CN1c1cccc2c1cnn2-c1ccccc1F (relative stereo) [Example 5, rel-(3aR,6aR)-5-[1-(2-fluorophenyl)-1H-indazol-4-yl]-1-[(1-hydroxycyclopropyl)carbonyl]hexahydropyrrolo[3,4-b]pyrrol-6(1H)-one] | 1.68 µM | > 30 µM
O=C1[C@H]2CN(C(=O)n3ccnc3)C[C@H]2CN1c1cccc2c1cnn2-c1ccccc1F (relative stereo) [Example 12, rel-(3aR,6aR)-2-[1-(2-fluorophenyl)-1H-indazol-4-yl]-5-(1H-imidazol-1-ylcarbonyl)hexahydropyrrolo[3,4-c]pyrrol-1(2H)-one] | 3.06 µM | 13.7 µM
O=C(NCc1cnco1)N1C[C@H]2CN(c3cccc4c3cnn4-c3ccccc3F)C(=O)[C@H]2C1 (relative stereo) [Example 13, rel-(3aR,6aR)-5-[1-(2-fluorophenyl)-1H-indazol-4-yl]-N-(1,3-oxazol-5-ylmethyl)-4-oxohexahydropyrrolo[3,4-c]pyrrole-2(1H)-carboxamide] | 11.1 µM | –
CN(C)C(=O)N1C[C@H]2CN(c3cccc4c3cnn4-c3ccccc3F)C(=O)[C@H]2C1 (relative stereo) [Example 15, rel-(3aR,6aR)-5-[1-(2-fluorophenyl)-1H-indazol-4-yl]-N,N-dimethyl-4-oxohexahydropyrrolo[3,4-c]pyrrole-2(1H)-carboxamide] | 7.57 µM | –
CC(=O)N1C[C@@H]2CN(c3cccc4c3cnn4-c3ccccc3F)C(=O)[C@H]2C1 (relative stereo) [Example 17, rel-(3aR,6aR)-5-acetyl-2-[1-(2-fluorophenyl)-1H-indazol-4-yl]hexahydropyrrolo[3,4-c]pyrrol-1(2H)-one] | 8.93 µM | –
CC(C)C(=O)N1C[C@@H]2CN(c3cccc4c3cnn4-c3ccccc3F)C(=O)[C@@H]2C1 [Example 20, (3aR,6aS)-2-[1-(2-fluorophenyl)-1H-indazol-4-yl]-5-isobutyrylhexahydropyrrolo[3,4-c]pyrrol-1(2H)-one] | 4.48 µM | –
CC(C)CS(=O)(=O)N1C[C@@H]2CN(c3cccc4c3cnn4-c3ccccc3F)C(=O)[C@@H]2C1 [Example 21, (3aS,6aS)-2-[1-(2-fluorophenyl)-1H-indazol-4-yl]-5-(isobutylsulfonyl)hexahydropyrrolo[3,4-c]pyrrol-1(2H)-one] | 0.903 µM | 14.2 µM
CS(=O)(=O)N1C[C@@H]2CN(c3cccc4c3cnn4-c3ccccc3F)C(=O)[C@@H]2C1 [Example 22, (3aS,6aS)-2-[1-(2-fluorophenyl)-1H-indazol-4-yl]-5-(methylsulfonyl)hexahydropyrrolo[3,4-c]pyrrol-1(2H)-one] | 6.72 µM | –
CCS(=O)(=O)N1C[C@@H]2CN(c3cccc4c3cnn4-c3ccccc3F)C(=O)[C@@H]2C1 [Example 23, (3aS,6aS)-5-(ethylsulfonyl)-2-[1-(2-fluorophenyl)-1H-indazol-4-yl]hexahydropyrrolo[3,4-c]pyrrol-1(2H)-one] | 2.93 µM | > 30 µM
O=C(Cc1coc2ccccc12)N1CC2CN(c3cccc4c3cnn4-c3ccccc3F)C(=O)C2C1 [Example 25, (3aR,6aS)-5-(1-benzofuran-3-ylacetyl)-2-[1-(2-fluorophenyl)-1H-indazol-4-yl]hexahydropyrrolo[3,4-c]pyrrol-1(2H)-one] | 1.29 µM | 4.31 µM
O=C1[C@@H]2CN(S(=O)(=O)CCC(F)(F)F)C[C@@H]2CN1c1cccc2c1cnn2-c1ccccc1F [Example 26, (3aS,6aS)-2-[1-(2-fluorophenyl)-1H-indazol-4-yl]-5-[(3,3,3-trifluoropropyl)sulfonyl]hexahydropyrrolo[3,4-c]pyrrol-1(2H)-one] | 2.94 µM | > 30 µM
O=C1[C@@H]2CN(S(=O)(=O)c3cccnc3)C[C@@H]2CN1c1cccc2c1cnn2-c1ccccc1F [Example 27, (3aS,6aS)-2-[1-(2-fluorophenyl)-1H-indazol-4-yl]-5-(pyridin-3-ylsulfonyl)hexahydropyrrolo[3,4-c]pyrrol-1(2H)-one] | 3.62 µM | –
O=C1[C@@H]2CN(S(=O)(=O)C3CC3)C[C@@H]2CN1c1cccc2c1cnn2-c1ccccc1F [Example 28, (3aS,6aS)-5-(cyclopropylsulfonyl)-2-[1-(2-fluorophenyl)-1H-indazol-4-yl]hexahydropyrrolo[3,4-c]pyrrol-1(2H)-one] | 3.82 µM | –
CC(C)(C)OC(=O)N1CCC(S(=O)(=O)N2CC3CN(c4cccc5c4cnn5-c4ccccc4F)C(=O)C3C2)CC1 [Example 30, tert-butyl 4-{[(3aS,6aS)-5-[1-(2-fluorophenyl)-1H-indazol-4-yl]-4-oxohexahydropyrrolo[3,4c]-pyrrol-2(1H)-yl]sulfonyl}piperidine-1-carboxylate] | 3.62 µM | –
Cc1noc(C)c1CC(=O)N1C[C@@H]2CN(c3cccc4c3cnn4-c3ccccc3F)C(=O)[C@@H]2C1 [Example 33, (3aR,6aS)-5-[(3,5-dimethyl-1,2-oxazol-4-yl)acetyl]-2-[1-(2-fluorophenyl)-1H-indazol-4-yl]hexahydropyrrolo[3,4-c]pyrrol-1(2H)-one] | 13.3 µM | –
C[C@H](O)CC(=O)N1C[C@@H]2CN(c3cccc4c3cnn4-c3ccccc3F)C(=O)[C@@H]2C1 [Example 36, (3aR,6aS)-2-[1-(2-fluorophenyl)-1H-indazol-4-yl]-5-[(3S)-3-hydroxybutanoyl]hexahydropyrrolo[3,4-c]pyrrol-1(2H)-one] | 11.5 µM | –
C[C@@H](O)CC(=O)N1C[C@H]2CN(c3cccc4c3cnn4-c3ccccc3F)C(=O)[C@H]2C1 [Example 38, (3aS,6aR)-2-[1-(2-fluorophenyl)-1H-indazol-4-yl]-5-[(3R)-3-hydroxybutanoyl]hexahydropyrrolo[3,4-c]pyrrol-1(2H)-one] | 6.4 µM | –
C[C@@H](O)CC(=O)N1C[C@@H]2CN(c3cccc4c3cnn4-c3ccccc3F)C(=O)[C@@H]2C1 [Example 39, (3aR,6aS)-2-[1-(2-fluorophenyl)-1H-indazol-4-yl]-5-[(3R)-3-hydroxybutanoyl]hexahydropyrrolo[3,4-c]pyrrol-1(2H)-one] | 14.6 µM | –
O=C(C1CC1(F)F)N1C[C@@H]2CN(c3cccc4c3cnn4-c3ccccc3F)C(=O)[C@@H]2C1 (stereo partly drawn) [Example 40, (3aR,6aS)-5-[(2,2-difluorocyclopropyl)carbonyl]-2-[1-(2-fluorophenyl)-1H-indazol-4-yl]hexahydropyrrolo[3,4-c]pyrrol-1(2H)-one] | 10.4 µM | –
CC(C)(O)C(=O)N1C[C@H]2CN(c3cccc4c3cnn4-c3ccccc3F)C(=O)[C@H]2C1 [Example 41, (3aS,6aR)-2-[1-(2-fluorophenyl)-1H-indazol-4-yl]-5-(2-hydroxy-2-methylpropanoyl)hexahydropyrrolo[3,4-c]pyrrol-1(2H)-one] | 13.1 µM | –
O=C1[C@H]2CN(C(=O)C3(O)CC3)C[C@H]2CN1c1cccc2c1cnn2-c1ccccc1F [Example 42, (3aS,6aR)-2-[1-(2-fluorophenyl)-1H-indazol-4-yl]-5-[(1-hydroxycyclopropyl)carbonyl]hexahydropyrrolo[3,4-c]pyrrol-1(2H)-one] | 8.89 µM | –
CC(C)(O)C(=O)N1CC[C@@H]2CN(c3cccc4c3cnn4-c3ccccc3F)C(=O)[C@@H]21 [Example 47, (3aR,6aR)-5-[1-(2-fluorophenyl)-1H-indazol-4-yl]-1-(2-hydroxy-2-methylpropanoyl)hexahydropyrrolo[3,4-b]pyrrol-6(1H)-one] | 3.06 µM | –
O=C1[C@H]2[C@H](CCN2C(=O)C2(O)CC2)CN1c1cccc2c1cnn2-c1ccccc1F [Example 48, (3aR,6aR)-5-[1-(2-fluorophenyl)-1H-indazol-4-yl]-1-[(1-hydroxycyclopropyl)carbonyl]hexahydropyrrolo[3,4-b]pyrrol-6(1H)-one] | 0.593 µM | –
